Test results: paper PMC10755004, “Pyrimidine salvage in Toxoplasma gondii as a target for new treatment” (Frontiers in Cellular and Infection Microbiology, 2023)
Where “and” joins values, the source holds several entries; their conditions need not be identical. Identical values can stand only once. Like-named read-outs stand apart in the source and are kept apart here.

Columns and labels:
[1] = tested on: T. gondii intracellular tachyzoites; experiment: Drug sensitivity assay for T. gondii tachyzoites in HFF cells (RFP fluorescence, 6 days); assay type: cell-based, Toxoplasma gondii; settings: for effect on intracellular tachyzoites: concentrations up to 25 µM; for in vitro activity compared with sulfadiazine (in words): EC50 against T. gondii vs sulfadiazine; for EC50: intracellular tachyzoites in HFF, 6 days
Protocol: The in vitro inhibitory effects of antimicrobial nucleoside agents on T. gondii growth were determined in HFF cell cultures using 96-well black plates (Optical-Bottom Plates with Polymer Base, Thermo Fisher Scientific). 150 – 200 µL of HFF cells were seeded into 96-well black plates and incubated for 3-5 days at 37°C under 5% CO2 in a humidified incubator. Once the HFF cells became confluent the supernatant was discarded and replaced with 100 µL fresh DMEMc media. Sulfadiazine (positive control) and the nucleoside compounds were already dissolved in DMSO at known concentrations, usually prepared as 10 mM. After that, every compound was diluted in DMEMc at 4x final concentration. The assays were performed in duplicate or triplicate throughout. 100 µL of 4x compounds were transferred to the wells of the first column of a 96-well black plate of which each well contained HFF cells in 100 µL DMEMc. The compounds were mixed, and 100 µL was transferred using the multichannel pipette to the next column before being transferred to each column through the entire plate over one row, leaving the last column as a negative control without drug. After that, naturally, freshly egressed parasites were collected and filtered through a 3-µm filter (Sigma-Aldrich). ~1000 parasites/well were added in 100 µL DMEMc (giving a total volume of 200 µL/well) and incubated for 6 days at a 37°C/5% CO2 in a humidified incubator. On day 6, a PHERAstar plate reader (BMG Labtech, Germany) was used to read the fluorescence intensity at 540 nm for excitation and 590 nm for emission. The EC50 values and fluorescence data were determined and plotted by using Prism 8.0 (GraphPad). Each experiment was independently performed 3-5 times.
Most published protocols for in vitro drug screening against T. gondii use the MTT assay, which is a colorimetric assay that relies on tetrazolium salt and is used for accessing cell viability, cell proliferation and cytotoxicity for the host cells ([Jin et al., 2012]). Our protocol is an adaptation from a method that was used to evaluate antiretroviral compounds against T. gondii tachyzoites ([Wang et al., 2019]). These authors added 5×10^4 cells/mL freshly egressed tachyzoites to each well of a 96-well plate with an HFF cell monolayer, followed by incubation for 4 h to allow the cells to invade the host cells; the medium containing extracellular tachyzoites was then removed and fresh medium containing the desired concentration of the antiretroviral drugs was added to the wells and incubated for 5 days at 37°C and 5% CO2 in a humidified incubator ([Wang et al., 2019]). In our adaptation of this protocol, we aimed to eliminate the step of wash/removal of tachyzoites, in order to increase reproducibility. We thus prepared the serial dilutions of compounds in the 96-well plates containing the HFF monolayer cells and then added the lower number of 1×10^4 cells/mL freshly lysed tachyzoites to the 96-well plates, already containing both the HFF monolayer cells and tested compounds. The plates were then incubated for 6 days at 37°C and 5% CO2 in a humidified incubator. A major advantage that was introduced was detection of T. gondii in the wells, which was achieved by measuring fluorescence of the RFP-expressing parasites.

[2] = biological target: uridine/uracil transporter 1 (TgUUT1); experiment: Transport of 0.1 µM [3H]-uridine into extracellular T. gondii tachyzoites (oil-stop technique); assay type: cell-based, Toxoplasma gondii; settings: for Ki: inhibition of 0.1 µM [3H]-uridine transport; for δ(ΔG^0): loss of binding energy compared with uridine; for inhibition of [3H]-uridine uptake: 0.1 µM [3H]-uridine, 5 min; for Km: 0.1 µM label, tachyzoites, n=3; for Gibbs free energy of binding: from Km/Ki on [3H]-uridine transport
T. gondii [3] = experiment: Mouse model of acute toxoplasmosis, parasite burden in lung by qPCR; assay type: in vivo, C57BL/6J mice; settings: pyrimidines 25 mg/kg i.p., sulfadiazine oral in water, lung parasite burden day 10
HFF cells [4] = experiment: cells; settings: Homo sapiens, 144 h
HFF cells [5] = settings: for S.I.: selectivity index, HFF cytocidal EC50/tachyzoite EC50; for EC50: read-out: HFF ctotoxicity EC50 Cytostatic, uninfected HFF, 6 days
T. gondii tachyzoites = experiment: Uptake of tritiated pyrimidines by T. gondii tachyzoites over time; assay type: cell-based, Toxoplasma gondii
[6] = biological target: uridine/uracil transporter 1 (TgUUT1); experiment: Transport of 0.1 µM [3H]-uracil into extracellular T. gondii tachyzoites (oil-stop technique); assay type: cell-based, Toxoplasma gondii; settings: for Ki: inhibition of 0.1 µM [3H]-uracil transport
TgAT1 = tested on: TgAT1; set-up: method as in Chiang et al., 1999; settings: TgAT1 expressed in X. laevis oocytes; ref Chiang et al., 1999; cited from earlier work
T. gondii [7] = tested on: T. gondii; set-up: method as in el Kouni et al., 1999; settings: ref el Kouni et al., 1999; read-out: EC50 against T. gondii; cited from earlier work
[8] = read-out: HFF ctotoxicity EC50 Cytostatic
[9] = read-out: HFF ctotoxicity EC50 Cytostatic (second column)

Q: For `C[C@H]1O[C@@H](n2ccc(=O)[nH]c2=O)[C@H](O)[C@@H]1O` [5’-deoxyuridine], which “effect on intracellular tachyzoites” value [1] is on record?
A: no effect

Q: For `O=c1ccn([C@H]2C[C@H](O)[C@@H](CO)O2)c(=O)[nH]1` [2’-Deoxyuridine], which Ki [2] is on record?
A: 134 ± 31 µM

Q: What about the “δ(ΔG^0)” value [2] of the same molecule?
A: 2.15 kcal/mol and 2.17 kcal/mol

Q: What about the “effect on intracellular tachyzoites” value [1] of the same molecule?
A: no effect

Q: What does the source list for `O=c1[nH]c(=O)n([C@H]2C[C@H](O)[C@@H](CO)O2)cc1F` [5-F,2’dUrd, 5-fluoro-2’deoxyuridine]?
A: efficacy against acute toxoplasmosis, comparison between treatments (T. gondii [3]): significantly less effective; efficacy against acute toxoplasmosis, comparison between treatments (T. gondii [3]; listed as 5F,2’-deoxyuridine): similarly effective as sulfadiazine; in vitro activity compared with sulfadiazine (in words) [1]: well below; EC50 ([1]; Toxoplasma gondii, 144 h): 0.67 ± 0.07 µM; EC50 (HFF cells [4]; [8]): 0.19 ± 0.05 µM; EC50 (HFF cells [4]; [9]): 1480 ± 510 µM; S.I. (HFF cells [5]): 2205

Q: With `CCc1nc(N)nc(N)c1-c1ccc(Cl)cc1` [Pyrimethamine] as the molecule, how does the EC50 ([1]; Toxoplasma gondii, 144 h) read?
A: 16.2 µM

Q: For `O=c1[nH]cnc2c1ncn2[C@@H]1O[C@H](CO)[C@@H](O)[C@H]1O` [Inosine], which Ki [2] is on record?
A: 28.2 ± 4.1 µM

Q: Which “effect on intracellular tachyzoites” value [1] does the source give for `Cc1cn([C@H]2CC[C@@H](CO)O2)c(=O)[nH]c1=O` [3’-deoxythymidine] here?
A: no effect

Q: For `O=c1[nH]c(=O)n([C@@H]2O[C@H](CO)[C@@H](O)[C@H]2O)cc1F` [5-FUrd, 5-Flourouridine], which “in vitro activity compared with sulfadiazine (in words)” value [1] is on record?
A: well below

Q: What about the EC50 [1] of the same molecule?
A: 0.45 ± 0.02 µM

Q: And the EC50 (HFF cells [5]; first (low concentration) phase, growth inhibition)?
A: 0.11 ± 0.1 µM

Q: What about the EC50 (HFF cells [5]; second phase (cytocidal per footnote and text)) of the same molecule?
A: 20.4 ± 1 µM

Q: What about the S.I. (HFF cells [5]) of the same molecule?
A: 45

Q: With `O=c1ccn([C@@H]2O[C@H](CO)[C@@H](O)[C@H]2O)c(=O)[nH]1` [Uridine] as the molecule, how does the Rate of uptake (T. gondii tachyzoites; 0.10 µM radiolabel) read?
A: 0.011 ± 0.0006 pmol(10^7 cells)^-1min^-1

Q: And the “inhibition of [3H]-cytidine uptake” value (T. gondii tachyzoites; 0.2 µM [3H]-cytidine, 1 mM unlabeled inhibitor)?
A: fully inhibited

Q: What about the “inhibition of [3H]-thymidine uptake” value (T. gondii tachyzoites; 0.25 µM [3H]-thymidine, 250 µM inhibitor) of the same molecule?
A: did not inhibit

Q: What about the inhibition at 250 µM (T. gondii tachyzoites; Toxoplasma gondii, [3H]-cytidine, 250 µM inhibitor) of the same molecule?
A: 100%

Q: What about the Ki [6] of the same molecule?
A: 2.44 ± 0.59 µM

Q: And the “inhibition of [3H]-uridine uptake” value ([2]; 1 mM unlabeled inhibitor)?
A: 90%

Q: What about the Vmax ([2]; [3H]-uridine as substrate) of the same molecule?
A: 1.21 ± 0.24 pmol(10^7 cells)^-1 min^-1

Q: And the Km ([2]; [3H]-uridine as substrate, listed as [^3H]-uridine)?
A: 3.34 ± 0.82 µM

Q: And the Km ([2]; [3H]-uridine as substrate, listed as uridine)?
A: 3.3 ± 0.8 µM

Q: What about the “Gibbs free energy of binding” value [2] of the same molecule?
A: -7.46 kcal/mol

Q: With `Nc1ncnc2c1ncn2[C@@H]1O[C@H](CO)[C@@H](O)[C@H]1O` [Adenosine] as the molecule, how does the Km (TgAT1) read?
A: 114 µM

Q: What about the “inhibition of TgUUT1 uridine uptake” value ([2]; 2500-fold excess of unlabeled inhibitor) of the same molecule?
A: ~ 70%

Q: And the Ki [2]?
A: 112 ± 6 µM

Q: What does the source list for `O=c1[nH]cc(F)c(=O)[nH]1` [5-FU, 5-fluorouracil]?
A: δ(ΔG^0) ([6]; 5-FU Ki compared to uracil Km): 0.717 kcal/mol; Ki [6]: 6.8 ± 2.12 µM; Ki [2]: 5.24 ± 0.72 µM; efficacy against acute toxoplasmosis, comparison between treatments (T. gondii [3]): not significantly different from sulfadiazine; efficacy against acute toxoplasmosis, comparison between treatments (T. gondii [3]; listed as 5F-uracil): similarly effective as sulfadiazine; in vitro activity compared with sulfadiazine (in words) [1]: well below; EC50 ([1]; Toxoplasma gondii, 144 h): 1.13 ± 0.16 µM; EC50 (HFF cells [4]; [8]): 2.49 ± 0.43 µM; EC50 (HFF cells [4]; [9]): 3070 ± 340 µM; S.I. (HFF cells [5]): 2720

Q: Which “inhibition of [3H]-thymidine uptake” value (T. gondii tachyzoites; 0.25 µM [3H]-thymidine over 10 min, 1 mM unlabeled inhibitor) does the source give for `Cc1cn([C@H]2C[C@H](O)[C@@H](CO)O2)c(=O)[nH]c1=O` [Thymidine] here?
A: did not significantly inhibit

Q: And the Rate of uptake (T. gondii tachyzoites; 0.25 µM radiolabel, over 10 min)?
A: 0.00071 ± 0.00016 pmol(10^7 cells)^-1min^-1

Q: What about the “inhibition of [3H]-uridine uptake” value ([2]; 250 µM inhibitor) of the same molecule?
A: somewhat inhibited

Q: What about the “Gibbs free energy of binding” value [2] of the same molecule?
A: -4.09 kcal/mol

Q: And the Ki [2]?
A: 1010 ± 145 µM

Q: And the “δ(ΔG^0)” value [2]?
A: 3.37 kcal/mol and 3.39 kcal/mol

Q: Which EC50 ([1]; Toxoplasma gondii, 144 h) does the source give for `Nc1ccc(S(=O)(=O)Nc2ncccn2)cc1` [Sulfadiazine] here?
A: 12.4 ± 1.08 µM

Q: For `Nc1ncnc2c1ncn2[C@@H]1O[C@H](CO)[C@@H](O)[C@@H]1O` [Ara-A, adenine arabinoside], which EC50 [1] is on record?
A: 11.4 ± 1.8 µM

Q: With `O=[N+]([O-])c1ccc(CSc2ncnc3c2ncn3[C@@H]2O[C@H](CO)[C@@H](O)[C@H]2O)cc1` [NBMPR] as the molecule, how does the EC50 [1] read?
A: 3.19 ± 0.14 µM

Q: And the EC50 (T. gondii [7])?
A: 10.2 µM

Q: With `Nc1ccn([C@@H]2O[C@H](CO)[C@@H](O)[C@H]2O)c(=O)n1` [Cytidine] as the molecule, how does the Rate of uptake (T. gondii tachyzoites; 0.20 µM radiolabel) read?
A: 0.0029 ± 0.0004 pmol(10^7 cells)^-1min^-1

Q: What about the Rate of uptake (T. gondii tachyzoites; 0.20 µM radiolabel, listed as [^3H]-cytidine) of the same molecule?
A: 0.0029 pmol(10^7 cells)^-1min^-1

Q: Which Rate of uptake (T. gondii tachyzoites; 0.10 µM radiolabel) does the source give for `O=c1cc[nH]c(=O)[nH]1` [Uracil] here?
A: 0.026 ± 0.0014 pmol(10^7 cells)^-1min^-1

Q: And the Rate of uptake (T. gondii tachyzoites; 0.10 µM radiolabel, listed as [^3H]-uracil)?
A: 0.026 pmol(10^7 cells)^-1min^-1

Q: And the Vmax ([6]; [3H]-uracil as substrate)?
A: 0.166 pmol(10^7 cells)^-1 min^-1

Q: What about the Km ([6]; [3H]-uracil as substrate, 0.1 µM label, tachyzoites, n=3) of the same molecule?
A: 2.05 ± 0.4 µM

Q: And the “inhibition of [3H]-uridine uptake” value ([2]; 250 µM inhibitor)?
A: 80%

Q: What about the Ki [2] of the same molecule?
A: 1.15 ± 0.07 µM

Q: Which Ki [2] does the source give for `Cc1cn([C@@H]2O[C@H](CO)[C@@H](O)[C@H]2O)c(=O)[nH]c1=O` [5-Methyluridine] here?
A: 2380 ± 774 µM

Q: For `O=c1ccn([C@H]2CC[C@@H](CO)O2)c(=O)[nH]1` [2’,3’-dideoxyuridine], which “effect on intracellular tachyzoites” value [1] is on record?
A: no effect
